Experimental data as given in US9006188B2, “Co-crystals of dapagliflozin” (Mapi Pharma Ltd., priority 2013, dated 2015).

Test: Hygroscopicity by Dynamic Vapor Sorption (DVS), sorption/desorption profile
Type: physicochemical
Conditions: for weight gain from 0 to 95% RH / Change In Mass (%) - ref, Desorption / Change In Mass (%) - ref, Sorption / Change In Mass (%) - ref, Hysteresis: DVS 25° C.; for hygroscopicity classification: based on DVS weight gain from 0 to 95% RH
Description: The preparation of lactose co-crystal and asparagine co-crystal were scaled up and repeated (about 400 mg of dapagliflozin free form was dissolved in 26 ml of IPA) and XRPD, PLM, TGA, DSC, NMR and DVS analyses were conducted for physicochemical properties evaluation. Before physicochemical properties evaluation, the solids precipitated out were isolated and dried off at 40° C. for 4 hours in vacuum drier. After hygroscopicity test, the sample was retested by XRPD to determine if any form transformation during the DVS test.
The sorption/desorption profiles of dapagliflozin Form I were tested at 25° C. under 0-95% relative humidity. […] This sample was tested by XRPD.

CCOc1ccc(Cc2cc(C3OC(CO)C(O)C(O)C3O)ccc2Cl)cc1.OCC1OC(OC2C(CO)OC(O)C(O)C2O)C(O)C(O)C1O (stereo not drawn) [lactose co-crystal]
weight gain from 0 to 95% RH: 2.16% | Change In Mass (%) - ref, Desorption (cycle 1, target 0.0 % P/Po): 0.077% | Change In Mass (%) - ref, Sorption (cycle 1, target 0.0 % P/Po): 0.000% | Change In Mass (%) - ref, Desorption (cycle 1, target 5.0 % P/Po): 0.104% | Change In Mass (%) - ref, Hysteresis (cycle 1, target 5.0 % P/Po): 0.083% | Change In Mass (%) - ref, Sorption (cycle 1, target 5.0 % P/Po): 0.021% | Change In Mass (%) - ref, Desorption (cycle 1, target 10.0 % P/Po): 0.120% | Change In Mass (%) - ref, Hysteresis (cycle 1, target 10.0 % P/Po): 0.078% | Change In Mass (%) - ref, Sorption (cycle 1, target 10.0 % P/Po): 0.042% | Change In Mass (%) - ref, Desorption (cycle 1, target 15.0 % P/Po): 0.136% | Change In Mass (%) - ref, Hysteresis (cycle 1, target 15.0 % P/Po): 0.073% | Change In Mass (%) - ref, Sorption (cycle 1, target 15.0 % P/Po): 0.064% | Change In Mass (%) - ref, Desorption (cycle 1, target 20.0 % P/Po): 0.151% | Change In Mass (%) - ref, Hysteresis (cycle 1, target 20.0 % P/Po): 0.066% | Change In Mass (%) - ref, Sorption (cycle 1, target 20.0 % P/Po): 0.085% | Change In Mass (%) - ref, Desorption (cycle 1, target 25.0 % P/Po): 0.170% | Change In Mass (%) - ref, Hysteresis (cycle 1, target 25.0 % P/Po): 0.063% | Change In Mass (%) - ref, Sorption (cycle 1, target 25.0 % P/Po): 0.107% | Change In Mass (%) - ref, Desorption (cycle 1, target 30.0 % P/Po): 0.188% | Change In Mass (%) - ref, Hysteresis (cycle 1, target 30.0 % P/Po): 0.058% | Change In Mass (%) - ref, Sorption (cycle 1, target 30.0 % P/Po): 0.131% | Change In Mass (%) - ref, Desorption (cycle 1, target 35.0 % P/Po): 0.213% | Change In Mass (%) - ref, Hysteresis (cycle 1, target 35.0 % P/Po): 0.053% | Change In Mass (%) - ref, Sorption (cycle 1, target 35.0 % P/Po): 0.160% | Change In Mass (%) - ref, Desorption (cycle 1, target 40.0 % P/Po): 0.238% | Change In Mass (%) - ref, Hysteresis (cycle 1, target 40.0 % P/Po): 0.036% | Change In Mass (%) - ref, Sorption (cycle 1, target 40.0 % P/Po): 0.201% | Change In Mass (%) - ref, Desorption (cycle 1, target 45.0 % P/Po): 0.266% | Change In Mass (%) - ref, Hysteresis (cycle 1, target 45.0 % P/Po): 0.022% | Change In Mass (%) - ref, Sorption (cycle 1, target 45.0 % P/Po): 0.244% | Change In Mass (%) - ref, Desorption (cycle 1, target 50.0 % P/Po): 0.296% | Change In Mass (%) - ref, Hysteresis (cycle 1, target 50.0 % P/Po): 0.013% | Change In Mass (%) - ref, Sorption (cycle 1, target 50.0 % P/Po): 0.283% | Change In Mass (%) - ref, Desorption (cycle 1, target 55.0 % P/Po): 0.330% | Change In Mass (%) - ref, Hysteresis (cycle 1, target 55.0 % P/Po): 0.007% | Change In Mass (%) - ref, Sorption (cycle 1, target 55.0 % P/Po): 0.323% | Change In Mass (%) - ref, Desorption (cycle 1, target 60.0 % P/Po): 0.366% | Change In Mass (%) - ref, Hysteresis (cycle 1, target 60.0 % P/Po): 0.003% | Change In Mass (%) - ref, Sorption (cycle 1, target 60.0 % P/Po): 0.363% | Change In Mass (%) - ref, Desorption (cycle 1, target 65.0 % P/Po): 0.410% | Change In Mass (%) - ref, Hysteresis (cycle 1, target 65.0 % P/Po): 0.000% | Change In Mass (%) - ref, Sorption (cycle 1, target 65.0 % P/Po): 0.409% | Change In Mass (%) - ref, Desorption (cycle 1, target 70.0 % P/Po): 0.465% | Change In Mass (%) - ref, Hysteresis (cycle 1, target 70.0 % P/Po): 0.000% | Change In Mass (%) - ref, Sorption (cycle 1, target 70.0 % P/Po): 0.466% | Change In Mass (%) - ref, Desorption (cycle 1, target 75.0 % P/Po): 0.531% | Change In Mass (%) - ref, Hysteresis (cycle 1, target 75.0 % P/Po): −0.004% | Change In Mass (%) - ref, Sorption (cycle 1, target 75.0 % P/Po): 0.534% | Change In Mass (%) - ref, Desorption (cycle 1, target 80.0 % P/Po): 0.618% | Change In Mass (%) - ref, Hysteresis (cycle 1, target 80.0 % P/Po): −0.004% | Change In Mass (%) - ref, Sorption (cycle 1, target 80.0 % P/Po): 0.622% | Change In Mass (%) - ref, Desorption (cycle 1, target 85.0 % P/Po): 0.768% | Change In Mass (%) - ref, Hysteresis (cycle 1, target 85.0 % P/Po): 0.005% | Change In Mass (%) - ref, Sorption (cycle 1, target 85.0 % P/Po): 0.762% | Change In Mass (%) - ref, Desorption (cycle 1, target 90.0 % P/Po): 1.081% | Change In Mass (%) - ref, Hysteresis (cycle 1, target 90.0 % P/Po): 0.069% | Change In Mass (%) - ref, Sorption (cycle 1, target 90.0 % P/Po): 1.012% | Change In Mass (%) - ref, Desorption (cycle 1, target 95.0 % P/Po): 2.162% | Change In Mass (%) - ref, Sorption (cycle 1, target 95.0 % P/Po): 2.162% | hygroscopicity classification: hygroscopic

CCOc1ccc(Cc2cc(C3OC(CO)C(O)C(O)C3O)ccc2Cl)cc1.NC(=O)CC(N)C(=O)O (stereo not drawn) [Asparagine co-crystal]
weight gain from 0 to 95% RH: 1.80% | Change In Mass (%) - ref, Desorption (cycle 1, target 0.0 % P/Po): 0.159% | Change In Mass (%) - ref, Sorption (cycle 1, target 0.0 % P/Po): 0.002% | Change In Mass (%) - ref, Desorption (cycle 1, target 5.0 % P/Po): 0.302% | Change In Mass (%) - ref, Hysteresis (cycle 1, target 5.0 % P/Po): 0.071% | Change In Mass (%) - ref, Sorption (cycle 1, target 5.0 % P/Po): 0.231% | Change In Mass (%) - ref, Desorption (cycle 1, target 10.0 % P/Po): 0.341% | Change In Mass (%) - ref, Hysteresis (cycle 1, target 10.0 % P/Po): 0.071% | Change In Mass (%) - ref, Sorption (cycle 1, target 10.0 % P/Po): 0.270% | Change In Mass (%) - ref, Desorption (cycle 1, target 15.0 % P/Po): 0.364% | Change In Mass (%) - ref, Hysteresis (cycle 1, target 15.0 % P/Po): 0.060% | Change In Mass (%) - ref, Sorption (cycle 1, target 15.0 % P/Po): 0.304% | Change In Mass (%) - ref, Desorption (cycle 1, target 20.0 % P/Po): 0.371% | Change In Mass (%) - ref, Hysteresis (cycle 1, target 20.0 % P/Po): 0.035% | Change In Mass (%) - ref, Sorption (cycle 1, target 20.0 % P/Po): 0.336% | Change In Mass (%) - ref, Desorption (cycle 1, target 25.0 % P/Po): 0.392% | Change In Mass (%) - ref, Hysteresis (cycle 1, target 25.0 % P/Po): 0.022% | Change In Mass (%) - ref, Sorption (cycle 1, target 25.0 % P/Po): 0.370% | Change In Mass (%) - ref, Desorption (cycle 1, target 30.0 % P/Po): 0.412% | Change In Mass (%) - ref, Hysteresis (cycle 1, target 30.0 % P/Po): 0.009% | Change In Mass (%) - ref, Sorption (cycle 1, target 30.0 % P/Po): 0.404% | Change In Mass (%) - ref, Desorption (cycle 1, target 35.0 % P/Po): 0.440% | Change In Mass (%) - ref, Hysteresis (cycle 1, target 35.0 % P/Po): −0.006% | Change In Mass (%) - ref, Sorption (cycle 1, target 35.0 % P/Po): 0.446% | Change In Mass (%) - ref, Desorption (cycle 1, target 40.0 % P/Po): 0.474% | Change In Mass (%) - ref, Hysteresis (cycle 1, target 40.0 % P/Po): −0.020% | Change In Mass (%) - ref, Sorption (cycle 1, target 40.0 % P/Po): 0.493% | Change In Mass (%) - ref, Desorption (cycle 1, target 45.0 % P/Po): 0.517% | Change In Mass (%) - ref, Hysteresis (cycle 1, target 45.0 % P/Po): −0.026% | Change In Mass (%) - ref, Sorption (cycle 1, target 45.0 % P/Po): 0.542% | Change In Mass (%) - ref, Desorption (cycle 1, target 50.0 % P/Po): 0.565% | Change In Mass (%) - ref, Hysteresis (cycle 1, target 50.0 % P/Po): −0.042% | Change In Mass (%) - ref, Sorption (cycle 1, target 50.0 % P/Po): 0.607% | Change In Mass (%) - ref, Desorption (cycle 1, target 55.0 % P/Po): 0.600% | Change In Mass (%) - ref, Hysteresis (cycle 1, target 55.0 % P/Po): −0.073% | Change In Mass (%) - ref, Sorption (cycle 1, target 55.0 % P/Po): 0.673% | Change In Mass (%) - ref, Desorption (cycle 1, target 60.0 % P/Po): 0.650% | Change In Mass (%) - ref, Hysteresis (cycle 1, target 60.0 % P/Po): −0.086% | Change In Mass (%) - ref, Sorption (cycle 1, target 60.0 % P/Po): 0.736% | Change In Mass (%) - ref, Desorption (cycle 1, target 65.0 % P/Po): 0.729% | Change In Mass (%) - ref, Hysteresis (cycle 1, target 65.0 % P/Po): −0.057% | Change In Mass (%) - ref, Sorption (cycle 1, target 65.0 % P/Po): 0.786% | Change In Mass (%) - ref, Desorption (cycle 1, target 70.0 % P/Po): 0.794% | Change In Mass (%) - ref, Hysteresis (cycle 1, target 70.0 % P/Po): −0.075% | Change In Mass (%) - ref, Sorption (cycle 1, target 70.0 % P/Po): 0.869% | Change In Mass (%) - ref, Desorption (cycle 1, target 75.0 % P/Po): 0.878% | Change In Mass (%) - ref, Hysteresis (cycle 1, target 75.0 % P/Po): −0.078% | Change In Mass (%) - ref, Sorption (cycle 1, target 75.0 % P/Po): 0.956% | Change In Mass (%) - ref, Desorption (cycle 1, target 80.0 % P/Po): 1.031% | Change In Mass (%) - ref, Hysteresis (cycle 1, target 80.0 % P/Po): −0.041% | Change In Mass (%) - ref, Sorption (cycle 1, target 80.0 % P/Po): 1.072% | Change In Mass (%) - ref, Desorption (cycle 1, target 85.0 % P/Po): 1.171% | Change In Mass (%) - ref, Hysteresis (cycle 1, target 85.0 % P/Po): −0.030% | Change In Mass (%) - ref, Sorption (cycle 1, target 85.0 % P/Po): 1.201% | Change In Mass (%) - ref, Desorption (cycle 1, target 90.0 % P/Po): 1.378% | Change In Mass (%) - ref, Hysteresis (cycle 1, target 90.0 % P/Po): −0.019% | Change In Mass (%) - ref, Sorption (cycle 1, target 90.0 % P/Po): 1.397% | Change In Mass (%) - ref, Desorption (cycle 1, target 95.0 % P/Po): 1.798% | Change In Mass (%) - ref, Sorption (cycle 1, target 95.0 % P/Po): 1.798% | hygroscopicity classification: slightly hygroscopic
